Tests used:
thrombin generation (TG) [1] = assay type: biochemical, human; settings: 2 μM hirugen, PRP with CTI and anti-FXI MoAb
Experimental: TG in PRP or reconstituted PRP was evaluated as known to those skilled in the art. Native PRP was prepared from blood collected into final 12.9 mM trisodium citrate by centrifugation at 250 g for 10 min at 25° C. The platelet count was adjusted to 180×10^3/μl by dilution with homologous PPP obtained by centrifuging PRP for 10 min at 1,500 g. CTI was added at 30-50 μg/ml depending on calibrated potency as assessed by FXIIa inhibition. Reconstituted PRP was prepared with washed platelets prepared from normal PRP by adding ⅕th volume of acid citrate-dextrose (71 mM citric acid, 85 mM trisodium citrate, and 111 mM dextrose, pH 4.5) and 5 U/ml apyrase; following centrifugation at 1,500 g for 10 minutes at 25° C., the platelet pellet was resuspended into PPP lacking FVII (George King Bio-Medical) or FIX (Haematologic Technologies) to give a final platelet count of 180·103/μl PRP was mixed with varying concentrations of rTF and/or 20 pM FIXa in 96-well microtiter plates. The reaction was started by adding 18 mM CaCl2 with 360 μM of the thrombin substrate benzyloxycarbonyl-glycyl-glycyl-L-arginine coupled to the fluorogenic group 7-amido-4-methylcoumarin (Gly-Gly-Arg-AMC; Bachem Americas, Torrance, Calif.). Fluorescence was measured continuously at 37° C. for up to 40 min in a spectrofluorometer (355/460 nm excitation/emission). The rate of fluorescence intensity increase as a function of time (dF/dt) was calculated with Turbo Delphi 2006 (Borland Software Corporation, Austin, Tex.) and converted to thrombin-equivalent concentration (nM) using a calibration curve. The endogenous thrombin potential (ETP) of samples, i.e. total generated thrombin activity, was determined from the area under the TG curve. When specified, TG was measured with a discontinuous 2-stage assay with a detection limit of 5 pM. For this, TG was induced by 0.15 pM rTF and 18 mM CaCl2 in reconstituted FVII-deficient PRP including 30 μg/ml CTI with 400 pM WT FVIIa or iFVIIa without or with 20 pM FIXa. After incubation for up to 11 min at 37° C., reactions were terminated by adding 20 mM EDTA and generated thrombin was measured using the highly sensitive thrombin substrate H-D-CHA-Ala-Arg-AMC.2AcOH (Pefafluor TH, Pentapharm, Basel, Switzerland) at 50 μM concentration. In other experiments, TG was induced by TFiFVIIa-FXa-TFPI or TF-iFVIIa-FXa-NAPc2. These stable complexes were pre-formed by incubating 5 nM FXa, 10 nM TF, 10 nM iFVIIa and 40 nM TFPI or NAPc2 in the presence of 2.5 mM CaCl2 for 2 min at 37° C. Complexes were added into FVII-deficient PRP, followed by incubation for 8 min at 37° C.
PRP was prepared from blood collected into trisodium citrate (final concentration 0.0129 M) by centrifugation for at 250 g for 10 min at 25° C.; the platelet count was adjusted at 180.103 per μl by diluting with homologous platelet-poor plasma (PPP) obtained by centrifuging PRP for an additional 10 min at 1,500 g. When indicated, CTI was added at 30 to 50 μg/ml depending on calibrated potency measured by FXIIa inhibition. Reconstituted PRP was prepared by adding normal washed platelets into PPP (without or with CTI) lacking FVII, FVIII (both from George King Bio-Medical, Overland Park, Kans.) or FIX (Haematologic Technologies). […] generation in PRP was measured as described by Hemker et al. 53 μl of PRP was mixed in 96-well microtiter plates with 15 μl of a solution containing rTF and/or one of the intrinsic coagulation pathway proteases—FXIIa, FXIa or FIXa—to achieve the indicated final concentrations. Antibodies or inhibitors were also added at this point at the concentration indicated for each specific case. The reaction was started by adding between 15 and 20 μl of 100 mM CaCl2 and 2 mM fluorogenic substrate, benzyloxycarbonyl-glycyl-glycyl-L-arginine-7-amido-4-methylcoumarin (Gly-Gly-Arg-AMC; Bachem Americas, Torrance, Calif.).

thrombin generation (TG) [2] = experiment: TG in FVII-deficient reconstituted PRP with FVIIa WT or mutants; assay type: biochemical, human; settings: FVII-deficient plasma
Experimental: (A) Phospholipid-free assay of FX (1 μM) to FXa conversion by the complex of 2 μM soluble rTF with 10 nM FVIIa WT, T99Y or E154A. (B) FXa generation by 50 pM phospholipid-reconstituted rTF with 200 pM FVIIa WT, T99Y or E154A added to 135 nM FX, 0.7 nM FVIII, 3 nM FV and 200 nM lepirudin (2 min, n=2-3; 4 min, n=4-5; 6 min, n=6-9). (C) WB (representing 2) of FVIII activation in reactions of 50 pM TF, 200 pM FVIIa WT or mutants, 0.7 nM FVIII, 3 nM FV and 200 nM lepirudin without/with 135 nM FX, incubated for 120 s at 37° C. […] (E) FXa generation measured in reactions as in (D) without TFPIα and in the presence of 10 nM FIXa (left, incubation 180 s; n=5-6 except=2 for E154A) or 90 nM FIX (right, incubation for 360 s; n=5-6). […] Differences were evaluated by the ANOVA/Tukey test; results at 4 and 6 min in (B) and in reactions with FIX in (E, right) were analyzed after transformation as y=log 10 y (**P<0.01, ***P<0.001).
Thrombin was quantified with a fluorogenic substrate for calculation of % inhibition. […] Endogenous thrombin potential (ETP, right) was calculated from the area under the TG curve (n=2). […] Differences were evaluated with the ANOVA/Tukey test (performed after log 10 transformation of the data shown in E); *P<0.05, ***P<0.001. […]

thrombin = thrombin (Homo sapiens, UniProt P00734); settings: 0.5 nM FIIa, 50 pM rTF, 180 s
Experimental: FVIII activation by stable FXa complexes with TF-FVIIa was tested in reactions containing FVIII, FV and lepirudin with or without TFPIα, with incubation for 30-120 s at 37° C. […] The inhibitory effect of hirugen on FVIIIa generation by FIIa was tested in reactions with 0.5 nM FIIa incubated with 50 pM rTF and FVIII for 180 s at 37° C.

Substance: 63-O-Sulfo-Tyr-hirudin [hirugen]
- effect on FIXa-dependent TG (thrombin generation (TG) [1]): blocked
- effect on TG by FIXa combined with rTF (thrombin generation (TG) [1]): failed to inhibit
- effect on FIXa-initiated TG (thrombin generation (TG) [2]): abolished
- effect on FVIII activation by thrombin (thrombin): dose-dependently inhibited
